In patent US8415469B2, “Compounds and methods for kinase modulation, and indications therefor” (Plexxikon Inc., priority 2005, dated 2013):
pIC50: −log10 of the molar value.

Key:
Assay type in all cases: biochemical
B-Raf V600E = target: T1, B-Raf V600E (Homo sapiens, UniProt P15056, V600E); experiment: AlphaScreen kinase assay, B-Raf V600E; settings: read-out: IC50, activity toward kinase B-Raf V600E
T1 construct: P4254. pFastBacBD-CDC37 BRAF D437-K722-X, V600E; His6 with pFastBac HT leader (TEV site) (N); made in house; host or cells: Sf9 (baculovirus; chaperone CDC37 co-expressed)

Btk = target: T2, Btk (Homo sapiens, UniProt Q06187); experiment: Z'-Lyte FRET kinase assay (Invitrogen), Btk; settings: read-out: IC50, activity toward kinase Btk
T2 construct: purchased Invitrogen (assay run by Invitrogen)

Kdr = target: T3, Kdr (Homo sapiens, UniProt P35968); experiment: Z'-Lyte FRET kinase assay (Invitrogen), Kdr; settings: read-out: IC50, activity toward kinase Kdr
T3 construct: purchased Invitrogen (assay run by Invitrogen)

Ret = target: T4, Ret (Homo sapiens, UniProt P07949); experiment: AlphaScreen kinase assay, Ret; settings: read-out: IC50, activity toward kinase Ret
T4 construct: P1378.pET-SF BI-PTP RET H661-R1012 HIS; made in house
T4 sequence (P07949 with tags, fused parts or gaps): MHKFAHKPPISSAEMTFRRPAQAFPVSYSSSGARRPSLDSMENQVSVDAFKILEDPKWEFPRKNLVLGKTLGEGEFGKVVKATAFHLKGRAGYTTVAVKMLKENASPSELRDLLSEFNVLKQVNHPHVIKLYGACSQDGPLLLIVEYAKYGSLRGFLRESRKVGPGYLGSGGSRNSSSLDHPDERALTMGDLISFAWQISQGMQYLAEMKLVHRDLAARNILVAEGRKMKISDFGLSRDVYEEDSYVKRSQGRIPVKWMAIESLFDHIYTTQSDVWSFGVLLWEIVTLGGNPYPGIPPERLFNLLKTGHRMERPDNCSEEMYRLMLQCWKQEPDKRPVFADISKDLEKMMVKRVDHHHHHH

Yes = target: T5, Yes (Homo sapiens, UniProt P07947); experiment: Z'-Lyte FRET kinase assay (Invitrogen), Yes; settings: read-out: IC50, activity toward kinase Yes
T5 construct: purchased Invitrogen (Carlsbad, Calif.), screening service
In short: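 10 μM ATP, 2 μM peptide, 1% DMSO final; HEPES pH 7.5 buffer with MgCl2/EGTA/BRIJ-35. Kinase rxn 1 h RT, protease development 1 h RT, stop, read donor/acceptor ratio. Compound titrated.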

B-Raf = target: T6, B-Raf (Homo sapiens, UniProt P15056); experiment: AlphaScreen kinase assay, B-Raf; settings: read-out: IC50, activity toward kinase B-Raf
T6 construct: purchased Upstate Biotechnology

FGFR1 = target: T7, FGFR1 (Homo sapiens, UniProt P11362, C488A/C584S); experiment: AlphaScreen kinase assay, FGFR1; settings: read-out: IC50, activity toward kinase FGFR
T7 construct: P1351.pET N6 BI-PTP FGFR A458-E765-X C488A, C584S; made in house; host or cells: E. coli (PTP1B co-expressed)

Kit = target: T8, Kit (Homo sapiens, UniProt P10721); experiment: AlphaScreen kinase assay, Kit; settings: read-out: IC50, activity toward kinase Kit
T8 construct: P1332.N6 BI PTP KIT M552-K948-X COD; His6 (N); made in house; host or cells: E. coli (PTP1B co-expressed)

Fms = target: T9, Fms (Homo sapiens, UniProt P07333); experiment: AlphaScreen kinase assay, Fms; settings: read-out: IC50, activity toward kinase Fms
T9 construct: purchased Upstate Biotechnology

Measured: pIC50

T8 sequence (P10721 with tags, fused parts or gaps): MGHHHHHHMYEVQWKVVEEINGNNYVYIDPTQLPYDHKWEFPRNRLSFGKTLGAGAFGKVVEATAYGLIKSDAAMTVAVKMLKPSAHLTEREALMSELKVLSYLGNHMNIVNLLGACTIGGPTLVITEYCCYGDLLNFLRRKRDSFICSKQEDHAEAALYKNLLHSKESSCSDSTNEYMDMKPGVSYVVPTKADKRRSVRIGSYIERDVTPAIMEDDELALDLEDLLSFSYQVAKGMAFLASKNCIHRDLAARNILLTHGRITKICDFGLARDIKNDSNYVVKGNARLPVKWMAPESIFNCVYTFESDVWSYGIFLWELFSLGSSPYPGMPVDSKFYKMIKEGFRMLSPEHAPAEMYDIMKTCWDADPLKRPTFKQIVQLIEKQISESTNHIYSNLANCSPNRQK
T7 sequence (P11362 458-765 C488A/C584S): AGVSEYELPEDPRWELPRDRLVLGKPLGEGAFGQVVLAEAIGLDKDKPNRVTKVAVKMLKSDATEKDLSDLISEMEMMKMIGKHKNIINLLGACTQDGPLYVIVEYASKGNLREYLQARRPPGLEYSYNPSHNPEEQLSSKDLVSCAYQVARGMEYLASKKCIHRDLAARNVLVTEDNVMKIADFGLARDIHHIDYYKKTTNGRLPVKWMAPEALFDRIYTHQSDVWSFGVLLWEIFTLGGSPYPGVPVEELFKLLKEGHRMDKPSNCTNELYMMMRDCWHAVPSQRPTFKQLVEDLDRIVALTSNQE
T1 sequence (P15056 with tags, fused parts or gaps V600E): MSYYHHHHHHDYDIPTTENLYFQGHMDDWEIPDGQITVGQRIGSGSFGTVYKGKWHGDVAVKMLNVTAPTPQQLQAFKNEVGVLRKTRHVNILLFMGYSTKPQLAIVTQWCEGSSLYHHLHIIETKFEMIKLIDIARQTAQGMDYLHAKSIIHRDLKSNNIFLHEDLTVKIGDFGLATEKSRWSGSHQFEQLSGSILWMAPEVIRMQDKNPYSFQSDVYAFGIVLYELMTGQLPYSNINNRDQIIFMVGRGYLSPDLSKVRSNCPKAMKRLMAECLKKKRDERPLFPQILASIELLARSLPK
T6 sequence (P15056 whole entry): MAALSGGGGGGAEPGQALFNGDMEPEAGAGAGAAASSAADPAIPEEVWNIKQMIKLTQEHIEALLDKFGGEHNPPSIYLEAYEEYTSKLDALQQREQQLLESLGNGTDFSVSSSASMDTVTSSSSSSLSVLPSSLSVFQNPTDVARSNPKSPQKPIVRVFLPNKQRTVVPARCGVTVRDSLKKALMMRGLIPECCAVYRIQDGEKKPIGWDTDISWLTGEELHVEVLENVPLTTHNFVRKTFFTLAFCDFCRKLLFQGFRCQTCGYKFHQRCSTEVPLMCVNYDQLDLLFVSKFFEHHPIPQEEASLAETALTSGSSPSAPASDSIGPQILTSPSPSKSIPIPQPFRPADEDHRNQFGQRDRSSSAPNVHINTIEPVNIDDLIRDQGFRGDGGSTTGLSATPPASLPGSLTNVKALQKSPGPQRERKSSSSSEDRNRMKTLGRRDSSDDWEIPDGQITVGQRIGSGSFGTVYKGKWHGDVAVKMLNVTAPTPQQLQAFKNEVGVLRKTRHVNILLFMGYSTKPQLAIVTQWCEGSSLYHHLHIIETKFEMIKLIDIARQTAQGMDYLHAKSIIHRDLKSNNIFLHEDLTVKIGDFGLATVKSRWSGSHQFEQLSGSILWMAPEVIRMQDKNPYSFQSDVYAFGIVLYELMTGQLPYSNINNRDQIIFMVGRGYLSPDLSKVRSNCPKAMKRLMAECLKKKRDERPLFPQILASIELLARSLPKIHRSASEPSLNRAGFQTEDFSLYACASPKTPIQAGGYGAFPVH
T2 sequence (Q06187 whole entry): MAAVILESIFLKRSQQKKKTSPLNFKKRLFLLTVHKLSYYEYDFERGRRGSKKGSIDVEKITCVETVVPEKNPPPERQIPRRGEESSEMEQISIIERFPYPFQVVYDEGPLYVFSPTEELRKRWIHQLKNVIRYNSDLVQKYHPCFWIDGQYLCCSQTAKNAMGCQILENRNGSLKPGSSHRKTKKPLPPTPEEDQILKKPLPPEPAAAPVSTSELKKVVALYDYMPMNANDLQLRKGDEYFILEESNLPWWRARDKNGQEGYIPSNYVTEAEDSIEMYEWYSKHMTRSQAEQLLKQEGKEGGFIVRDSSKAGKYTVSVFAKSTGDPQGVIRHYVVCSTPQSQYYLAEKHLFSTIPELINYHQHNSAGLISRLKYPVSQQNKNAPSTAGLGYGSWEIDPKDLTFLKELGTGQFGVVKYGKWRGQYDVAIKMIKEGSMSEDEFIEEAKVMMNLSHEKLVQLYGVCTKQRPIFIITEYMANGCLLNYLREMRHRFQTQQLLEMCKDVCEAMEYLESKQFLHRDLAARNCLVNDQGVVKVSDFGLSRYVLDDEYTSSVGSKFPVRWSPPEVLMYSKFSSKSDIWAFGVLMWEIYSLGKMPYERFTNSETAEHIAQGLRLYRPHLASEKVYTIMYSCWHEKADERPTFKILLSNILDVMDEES
T3 sequence (P35968 20-1356): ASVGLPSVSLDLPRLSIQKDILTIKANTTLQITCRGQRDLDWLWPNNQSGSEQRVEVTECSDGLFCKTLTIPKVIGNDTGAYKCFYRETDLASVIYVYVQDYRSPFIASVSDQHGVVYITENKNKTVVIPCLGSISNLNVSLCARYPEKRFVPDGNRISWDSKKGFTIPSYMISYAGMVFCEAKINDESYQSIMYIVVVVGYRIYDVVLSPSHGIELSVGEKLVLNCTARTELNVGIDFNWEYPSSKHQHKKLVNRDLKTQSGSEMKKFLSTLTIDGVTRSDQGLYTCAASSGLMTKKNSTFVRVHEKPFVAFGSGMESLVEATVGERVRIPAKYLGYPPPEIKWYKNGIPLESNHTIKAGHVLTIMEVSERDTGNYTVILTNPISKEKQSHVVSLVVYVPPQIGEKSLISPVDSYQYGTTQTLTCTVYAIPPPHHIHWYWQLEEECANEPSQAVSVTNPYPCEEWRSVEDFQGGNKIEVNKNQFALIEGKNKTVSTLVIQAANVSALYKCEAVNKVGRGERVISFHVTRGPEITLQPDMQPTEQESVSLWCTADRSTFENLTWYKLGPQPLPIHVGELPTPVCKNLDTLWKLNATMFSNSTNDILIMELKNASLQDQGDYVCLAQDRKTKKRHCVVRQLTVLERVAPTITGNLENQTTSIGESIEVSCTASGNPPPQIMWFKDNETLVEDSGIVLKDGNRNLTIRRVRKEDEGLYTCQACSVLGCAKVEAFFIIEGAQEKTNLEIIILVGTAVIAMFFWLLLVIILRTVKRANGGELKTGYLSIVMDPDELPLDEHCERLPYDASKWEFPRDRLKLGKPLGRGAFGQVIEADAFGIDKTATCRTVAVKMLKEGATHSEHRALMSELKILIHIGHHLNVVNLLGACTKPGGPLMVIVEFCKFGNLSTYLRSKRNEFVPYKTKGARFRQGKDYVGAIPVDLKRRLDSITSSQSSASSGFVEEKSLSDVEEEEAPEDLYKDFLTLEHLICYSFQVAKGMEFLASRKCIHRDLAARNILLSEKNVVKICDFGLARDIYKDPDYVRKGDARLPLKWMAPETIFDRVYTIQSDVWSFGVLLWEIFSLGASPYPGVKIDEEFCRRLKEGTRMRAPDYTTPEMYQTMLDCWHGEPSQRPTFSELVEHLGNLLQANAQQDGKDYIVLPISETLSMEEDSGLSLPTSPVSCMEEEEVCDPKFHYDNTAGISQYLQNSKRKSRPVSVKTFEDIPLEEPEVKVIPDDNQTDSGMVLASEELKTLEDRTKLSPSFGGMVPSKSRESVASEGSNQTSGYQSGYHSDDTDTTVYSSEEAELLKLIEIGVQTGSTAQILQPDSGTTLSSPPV
T5 sequence (P07947 whole entry): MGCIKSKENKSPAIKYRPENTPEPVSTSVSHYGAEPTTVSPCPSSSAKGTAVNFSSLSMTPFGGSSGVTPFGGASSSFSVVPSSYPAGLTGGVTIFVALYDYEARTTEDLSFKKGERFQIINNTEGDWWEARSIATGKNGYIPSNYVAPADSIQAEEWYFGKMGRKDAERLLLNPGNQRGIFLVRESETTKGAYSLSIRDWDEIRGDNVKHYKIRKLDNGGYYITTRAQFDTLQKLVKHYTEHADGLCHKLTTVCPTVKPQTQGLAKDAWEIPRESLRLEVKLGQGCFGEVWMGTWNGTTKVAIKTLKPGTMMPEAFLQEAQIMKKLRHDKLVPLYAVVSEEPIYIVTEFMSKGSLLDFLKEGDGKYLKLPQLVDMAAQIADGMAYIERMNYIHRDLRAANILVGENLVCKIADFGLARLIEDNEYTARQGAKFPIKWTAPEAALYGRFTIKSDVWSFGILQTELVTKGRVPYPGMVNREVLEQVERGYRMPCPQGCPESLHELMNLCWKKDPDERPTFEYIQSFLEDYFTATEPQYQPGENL

Cc1ccccc1C(=O)c1c[nH]c2nccc(-c3cccc(N)c3)c12 [Compound P-0044]
≥ 5.00: B-Raf V600E | Btk | Kdr | Ret | Yes

CC(=O)Nc1cccc(-c2ccnc3[nH]cc(C(=O)c4ccccc4F)c23)c1 [Compound P-0070]
≥ 5.00: B-Raf V600E | Btk | Kdr | Ret | Yes

Nc1cccc(-c2ccnc3[nH]cc(C(=O)c4ccccc4F)c23)c1 [Compound P-0022]
≥ 5.00: B-Raf V600E | Btk | Kdr | Ret | Yes

Oc1cccc(Cc2c[nH]c3ncc(-c4ccsc4)cc23)c1 [Compound P-0056]
not listed: Btk | Fms
≥ 5.00: all other assays above

CCCS(=O)(=O)Nc1ccc(F)c(C(=O)c2c[nH]c3ncc(-c4ccccc4)cc23)c1F [Compound P-0636, Propane-1-sulfonic acid [2,4-difluoro-3-(5-phenyl-1H-pyrrolo[2,3-b]pyridine-3-carbonyl)-phenyl]-amide]
not listed: Btk | Kdr
≥ 5.00: all other assays above

O=C(c1ccc(O)cc1Cl)c1c[nH]c2ncccc12 [Compound P-0021]
not listed: Ret
≥ 5.00: all other assays above

O=C(c1ccccc1F)c1c[nH]c2nccc(-c3ccsc3)c12 [Compound P-0051]
≥ 5.00: B-Raf V600E | Btk | Kdr | Ret | Yes

NC(=O)c1ccc(-c2ccnc3[nH]cc(C(=O)c4ccccc4F)c23)cc1 [Compound P-0014]
≥ 5.00: B-Raf V600E | Btk | Kdr | Ret | Yes

Cc1ccccc1C(=O)c1c[nH]c2nccc(-c3cccc(NS(C)(=O)=O)c3)c12 [Compound P-0109]
≥ 5.00: B-Raf V600E | Btk | Ret | Yes

O=C(c1cccc(O)c1F)c1c[nH]c2ncc(-c3ccccc3)cc12 [Compound P-0036, (2-fluoro-3-hydroxy-phenyl)-(5-phenyl-1H-pyrrolo[2,3-b]pyridin-3-yl)-methanone]
not listed: Btk | Kdr
≥ 5.00: all other assays above

Cc1c(O)cccc1C(=O)c1c[nH]c2ncc(-c3cccnc3)cc12 [Compound P-0006, (3-Hydroxy-2-methyl-phenyl)-(5-pyridin-3-yl-1H-pyrrolo[2,3b]pyridin-3-yl)-methanone]
not listed: Yes
≥ 5.00: all other assays above

O=C(c1cccc(O)c1F)c1c[nH]c2ncc(Br)cc12 [Compound P-0067, (5-bromo-1H-pyrrolo[2,3-b]pyridin-3-yl)-(2-fluoro-3-hydroxy-phenyl)-methanone]
not listed: Ret
≥ 5.00: all other assays above

O=C(c1cc(O)ccc1F)c1c[nH]c2ncc(Br)cc12 [Compound P-0068, (5-Bromo-1H-pyrrolo[2,3-b]pyridin-3-yl)-(2-fluoro-5-hydroxy-phenyl)-methanone]
not listed: Ret | Kit
≥ 5.00: all other assays above

CCCS(=O)(=O)Nc1ccc(F)c(C(=O)c2c[nH]c3ncccc23)c1F [Compound P-0007, Propane-1-sulfonic acid [2,4-difluoro-3-(1H-pyrrolo[2,3-b]pyridine-3-carbonyl)-phenyl]-amide]
not listed: Ret
≥ 5.00: all other assays above

Oc1ccc(F)c(Cc2c[nH]c3ncc(Br)cc23)c1F [Compound P-0122, 3-(5-Bromo-1H-pyrrolo[2,3-b]pyridin-3-ylmethyl)-2,4-difluoro-phenol]
not listed: Btk | FGFR1 | Fms
≥ 5.00: all other assays above

Nc1cccc(-c2ccnc3[nH]cc(C(=O)c4cc(F)ccc4F)c23)c1 [Compound P-0046]
≥ 5.00: B-Raf V600E | Btk | Kdr | Ret | Yes

NC(=O)c1cccc(-c2ccnc3[nH]cc(C(=O)c4cc(F)ccc4F)c23)c1 [Compound P-0049]
≥ 5.00: B-Raf V600E | Btk | Kdr | Ret | Yes

O=C(O)/C=C/c1cccc(-c2cnc3[nH]cc(C(=O)c4cc(O)ccc4F)c3c2)c1 [Compound P-0010]
not listed: Kdr | Kit
≥ 5.00: all other assays above

CS(=O)(=O)c1cccc(-c2ccnc3[nH]cc(C(=O)c4cc(F)ccc4F)c23)c1 [Compound P-0171]
not listed: Kdr | Fms
≥ 5.00: all other assays above

O=C(c1cccc(O)c1)c1c[nH]c2ncc(Nc3ccccc3)cc12 [Compound P-0025]
not listed: Yes | Kit
≥ 5.00: all other assays above

Oc1cc(O)cc(Cc2c[nH]c3ncc(-c4ccsc4)cc23)c1 [Compound P-0093]
not listed: Ret
≥ 5.00: all other assays above

O=C(c1cc(F)ccc1F)c1c[nH]c2nccc(-c3cccnc3)c12 [Compound P-0063]
≥ 5.00: B-Raf V600E | Btk | Kdr | Ret | Yes

Cc1ccc(S(=O)(=O)NCc2c[nH]c3nccc(-c4cccc(C#N)c4)c23)cc1 [Compound P-0072]
not listed: Kdr | B-Raf
≥ 5.00: all other assays above

CN(C)S(=O)(=O)Nc1ccc(F)c(Cc2c[nH]c3ncc(-c4cccnc4)cc23)c1F [Compound P-0166]
not listed: Kdr | Ret
≥ 5.00: all other assays above

Cc1ccc(F)cc1C(=O)c1c[nH]c2nccc(-c3cccc(NS(C)(=O)=O)c3)c12 [Compound P-0124]
≥ 5.00: B-Raf V600E | Ret | Yes

OC(c1c(F)ccc(F)c1F)c1c[nH]c2ncc(-c3cccnc3)cc12 (centres unmarked) [Compound P-0101]
not listed: B-Raf V600E | Btk | B-Raf
≥ 5.00: all other assays above

Oc1ccc(F)c(C(O)c2c[nH]c3ncc(-c4cccnc4)cc23)c1F (centres unmarked) [Compound P-0009, 2,4-difluoro-3-[hydroxy-(5-pyridin-3-yl-1H-pyrrolo[2,3-b]pyridin-3-yl)-methyl]-phenol]
not listed: Yes
≥ 5.00: all other assays above
